Assay results reported in US12257287B2, “Glucagon-derived peptide and use thereof” (Tianjin Institute of Pharmaceutical Research Co., Ltd., priority 2018, dated 2025).
≈ marks a conversion by molar mass, not a printed value. Marks after values point to notes of the source that are not given here. Peptide text beside a SMILES is read from it.

Legend:
GC receptor = target: T1, GC receptor (Homo sapiens, UniProt P47871); test: GC receptor mediated cAMP production in vitro (HEK293 cells transfected with GC receptor); assay type: cell-based; conditions: 20 min at 37° C., read-out: GCGR (nM EC50)
T1 construct: expressed in transfected cells; host or cells: HEK293 cells
T1 sequence (P47871 26-477): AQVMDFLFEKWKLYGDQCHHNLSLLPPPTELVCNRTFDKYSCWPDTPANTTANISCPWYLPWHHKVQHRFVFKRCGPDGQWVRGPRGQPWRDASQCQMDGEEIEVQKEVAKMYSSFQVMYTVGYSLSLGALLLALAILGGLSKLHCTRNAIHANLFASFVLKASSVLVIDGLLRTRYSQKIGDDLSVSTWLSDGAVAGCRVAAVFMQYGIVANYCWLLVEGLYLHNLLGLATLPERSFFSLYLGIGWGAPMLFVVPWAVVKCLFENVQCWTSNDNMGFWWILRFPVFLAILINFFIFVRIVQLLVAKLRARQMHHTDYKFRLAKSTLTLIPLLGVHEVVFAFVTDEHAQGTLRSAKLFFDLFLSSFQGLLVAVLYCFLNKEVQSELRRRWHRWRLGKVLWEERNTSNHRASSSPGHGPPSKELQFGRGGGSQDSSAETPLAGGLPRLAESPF
Text: The medium was removed, the cells were lysed, and cAMP values were detected referring to the detection method described for the assay kit.

[1] = Effect on body weight of DIO mice after 14 days' administration; assay type: in vivo, C57BL/6J mice; conditions: positive values indicate a decrease; for body weight change, Table 5: Example 4, DIO mice, 14 days' administration, methods as in Example 3
Text: C57BL/6J mice (n=35), model group (n=30) were fed with H10060 high-fat diet to induce obesity (DIO), blank control group (n=5) were fed with standard diet, both for 34 weeks. One day before the first administration, the model group was randomly divided into groups according to their body weight (average body weight range 45.0-52.0 g), with 5 mice in each group, which respectively were model control group, positive control group (semaglutide), and test sample group (1 #-4 # are compound 1, compound 4, compound 6 and compound 22, respectively). The blank control group and model control group were given saline subcutaneously every day, while the positive control group and test sample group were administrated by subcutaneous injection every day for 14 days. The body weight of the animals was weighed and recorded every day, and the change rate of body weight (%) was calculated by comparing the body weight at the last administration day with the initial body weight. (initial body weight−last body weight)/initial body weight=body weight change rate (%). Calculation formula: […]
Calculated positive values indicate a decrease and negative values indicate an increase.
(§1) Methods are the same as that in Example 3, the test results of effects on body weight are shown in Table 5, and the effects on blood glucose are shown in Table 6. In the table, 5 #-9 # are compound 27, compound 35, compound 54, compound 57, and compound 66, respectively.

[2] = Glucose tolerance test in glucose-loaded DIO mice; assay type: in vivo; set-up: AUC reduction rate (%), Table 6: concentration or dose not given beside the values; conditions: for AUC of blood glucose, Table 6: Example 4, DIO mice under glucose load, methods as in Example 3; for AUC reduction rate (%), Table 6: Example 4, compared with model control group, DIO mice under glucose load
Protocol: DIO mice fasted for 16 h, and 1 h after administration by subcutaneous injection, glucose solution (1 g/kg) was given intraperitoneally for glucose tolerance test. Blood glucose values were measured at 0.5, 1 and 1.5 h after glucose administration. The area under the blood glucose concentration curve (AUC) was calculated and compared with that of the model control group, and the blood glucose inhibition rate (%) was calculated.
as §1

[3] = Short-term administration: food intake and body weight in DIO mice; assay type: in vivo; conditions: 30 nmol/kg once every 24 h, twice, − decrease
Protocol: Method: diet-induced obese mice (DIO) with an average body weight of 52.5 g were divided into model control and test groups, 5 mice in each group. The test samples were dissolved in 10 mM PBS of pH7.4, injected once every 24 h at a dose of 30 nmol/kg, and administered twice. The model group was injected with solvent. Changes in food intake and body weight at 48 hours were measured, and the change rates were calculated compared to the day before administration.

physchem = assay type: physicochemical
Protocol: 2 mg of the compound was weighed, dissolved in 1 ml of phosphate buffer solutions with different concentrations (10, 20 mM) and different pH values (7.5, 8.0), and centrifuged, and supernatant was taken. The peak area was measured by HPLC (chromatographic column: Aeris widepore XB-C18 3.6 mm, 4.6×150 mm; mobile phase: A: 0.05% TFA, B: 95% acetonitrile; detection wavelength: 214 nm) and compared with a corresponding sample standard solution, and the relative concentration of the test sample solution is calculated.

[4] = Accelerated chemical stability in injection solvent system (HPLC-UV); assay type: physicochemical; conditions: 14 days, phosphate buffer pH 7.3 with Tween 80 and phenol, main peak area vs day 0
Protocol: The chemical stability of the compounds of the present invention in injection solution systems was evaluated by an accelerated stability test. Methods: an appropriate amount of compound of Example 1 was weighed, and dissolved in 10 mM pH8.5 sodium hydrogen phosphate buffer. The final pH value of the solution was adjusted to 7.3 with 0.1 N hydrochloric acid, and proper amounts of Tween 80 and phenol were added. The mixture was placed at 10° C. and 37° C. for 14 days, and detected by HPLC-UV. The main peak area was obtained by peak area normalization method, and the changes compared with day 0 were investigated. The HPLC detection method was the same as that in Example 6, and the mobile phase gradient was appropriately adjusted according to the situation of chromatographic peak separation.

[5] = pH 7.5, Solubility, pH 7.5, 10 mM phosphate buffer
[6] = pH 7.5, Solubility, pH 7.5, 20 mM phosphate buffer
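For Solubility in this document: compound added at 2 mg per mL of phosphate buffer, with the dissolved amount determined in the supernatant.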

## CCCCCCCCCCCCCCCC(=O)N[C@@H](CCC(=O)N[C@@H](CCC(=O)NCCCC[C@H](NC(=O)[C@H](CC(=O)O)NC(=O)[C@H](CO)NC(=O)[C@@H](NC(=O)[C@H](Cc1ccccc1)NC(=O)[C@@H](NC(=O)CNC(=O)[C@H](CCC(N)=O)NC(=O)C(C)(C)NC(=O)[C@@H](N)Cc1c[nH]cn1)[C@@H](C)O)[C@@H](C)O)C(=O)N[C@@H](CO)C(=O)N[C@@H](CCCCN)C(=O)N[C@@H](Cc1ccc(O)cc1)C(=O)N[C@@H](CC(C)C)C(=O)N[C@@H](CCC(=O)O)C(=O)N[C@@H](CCC(=O)O)C(=O)N[C@@H](CCCNC(=N)N)C(=O)N[C@@H](C)C(=O)N[C@@H](C)C(=O)N[C@@H](CCCCN)C(=O)N[C@@H](CCC(=O)O)C(=O)N[C@@H](Cc1ccccc1)C(=O)N[C@H](C(=O)N[C@@H](CCC(=O)O)C(=O)N[C@@H](Cc1c[nH]c2ccccc12)C(=O)N[C@@H](CC(C)C)C(=O)N[C@@H](CCC(=O)O)C(=O)NCC(=O)NCC(=O)N1CCC[C@H]1C(=O)N[C@@H](CO)C(=O)N[C@@H](CO)C(=O)NCC(N)=O)C(C)C)C(=O)O)C(=O)O [Compound 7] (HELM PEPTIDE1{H.[Aib].Q.G.T.F.T.S.D.K.S.K.Y.L.E.E.R.A.A.K.E.F.V.E.W.L.E.G.G.P.S.S.G.[am]}|PEPTIDE2{[CCCCCCCCCCCCCCCC(=O)[*:2]].[gGlu].[gGlu]}$PEPTIDE1,PEPTIDE2,10:R3-3:R2$$$V2.0; N-terminus assumed)
GC receptor
  EC50: 0.026 nM
[1]; listed as 7#
  body weight change, Table 5: 21.45
[2]; listed as 7#
  AUC of blood glucose, Table 6: 7.26 ± 1.77 mmol·h/L
  AUC reduction rate (%), Table 6: 63.4** %

## CCCCCCCCCCCCCCCC(=O)N[C@@H](CCC(=O)N[C@@H](CCC(=O)NCCCC[C@H](NC(=O)[C@H](CC(=O)O)NC(=O)[C@H](CO)NC(=O)[C@@H](NC(=O)[C@H](Cc1ccccc1)NC(=O)[C@@H](NC(=O)CNC(=O)[C@H](CCC(N)=O)NC(=O)C(C)(C)NC(=O)[C@@H](N)Cc1c[nH]cn1)[C@@H](C)O)[C@@H](C)O)C(=O)N[C@@H](CO)C(=O)N[C@@H](CCCCN)C(=O)N[C@@H](Cc1ccc(O)cc1)C(=O)N[C@@H](CC(C)C)C(=O)N[C@@H](CCC(=O)O)C(=O)N[C@@H](CCC(=O)O)C(=O)N[C@@H](CCCNC(=N)N)C(=O)N[C@@H](C)C(=O)N[C@@H](C)C(=O)N[C@@H](CCCCN)C(=O)N[C@@H](CCC(=O)O)C(=O)N[C@@H](Cc1ccccc1)C(=O)N[C@H](C(=O)N[C@@H](C)C(=O)N[C@@H](Cc1c[nH]c2ccccc12)C(=O)N[C@@H](CC(C)C)C(=O)N[C@@H](CCC(=O)O)C(=O)N[C@@H](C)C(=O)NCC(=O)NCC(=O)N1CCC[C@H]1C(=O)N[C@@H](CO)C(=O)N[C@@H](CO)C(=O)NCC(N)=O)[C@@H](C)CC)C(=O)O)C(=O)O [Compound 1] (HELM PEPTIDE1{H.[Aib].Q.G.T.F.T.S.D.K.S.K.Y.L.E.E.R.A.A.K.E.F.I.A.W.L.E.A.G.G.P.S.S.G.[am]}|PEPTIDE2{[CCCCCCCCCCCCCCCC(=O)[*:2]].[gGlu].[gGlu]}$PEPTIDE1,PEPTIDE2,10:R3-3:R2$$$V2.0; N-terminus assumed)
GC receptor
  EC50: 0.0574 nM
[1]; DIO mice, subcutaneous injection every day for 14 days, (initial−last)/initial
  body weight change rate, Table 3: 28.3%
[2]; DIO mice fasted 16 h, glucose 1 g/kg i.p. 1 h after s.c. administration, 0.5, 1, 1.5 h
  AUC of blood glucose, Table 4: 7.24 ± 1.33 mmol·h/L
[2]; blood glucose inhibition rate compared with model control group, DIO mice, glucose 1 g/kg i.p.
  AUC reduction rate (%), Table 4: 65.8** %
[3]; at 48 hours vs day before administration
  Rate of change in food intake (%): −58%
[3]; at 48 hours
  Body weight change: -2.8 g
physchem; [5]
  solubility: > 2000 µg/mL
physchem; [6]
  solubility: > 2000 µg/mL
[4]; 10° C.
  Change in purity % (10° C.): −1.4%
[4]; 37° C.
  Change in purity % (37° C.): −5.2%

## CCCCCCCCCCCCCCCC(=O)N[C@@H](CCC(=O)N[C@@H](CCC(=O)NCCCC[C@H](NC(=O)[C@H](CC(=O)O)NC(=O)[C@H](CO)NC(=O)[C@@H](NC(=O)[C@H](Cc1ccccc1)NC(=O)[C@@H](NC(=O)CNC(=O)[C@H](CCC(N)=O)NC(=O)C(C)(C)NC(=O)[C@@H](N)Cc1c[nH]cn1)[C@@H](C)O)[C@@H](C)O)C(=O)N[C@@H](CO)C(=O)N[C@@H](CCCCN)C(=O)N[C@@H](Cc1ccc(O)cc1)C(=O)N[C@@H](CC(C)C)C(=O)N[C@@H](CCC(=O)O)C(=O)N[C@@H](CCC(=O)O)C(=O)N[C@@H](CCCNC(=N)N)C(=O)N[C@@H](C)C(=O)N[C@@H](C)C(=O)N[C@@H](CCCCN)C(=O)N[C@@H](CCC(=O)O)C(=O)N[C@@H](Cc1ccccc1)C(=O)N[C@H](C(=O)N[C@@H](CCC(=O)O)C(=O)N[C@@H](Cc1c[nH]c2ccccc12)C(=O)N[C@@H](CC(C)C)C(=O)N[C@@H](CCC(=O)O)C(=O)NCC(=O)NCC(=O)N1CCC[C@H]1C(=O)N[C@@H](CO)C(=O)N[C@@H](CO)C(=O)NCC(N)=O)C(C)C)C(=O)O)C(=O)O [Compound 5] (HELM PEPTIDE1{H.[Aib].Q.G.T.F.T.S.D.K.S.K.Y.L.E.E.R.A.A.K.E.F.V.E.W.L.E.G.G.P.S.S.G.[am]}|PEPTIDE2{[CCCCCCCCCCCCCCCC(=O)[*:2]].[gGlu].[gGlu]}$PEPTIDE1,PEPTIDE2,10:R3-3:R2$$$V2.0; N-terminus assumed)
GC receptor
  EC50: 0.193 nM
[1]; listed as 5#
  body weight change, Table 5: 27.74
[2]; listed as 5#
  AUC of blood glucose, Table 6: 7.12 ± 1.30 mmol·h/L
  AUC reduction rate (%), Table 6: 64.2** %

## CCCCCCCCCCCCCCCC(=O)N[C@@H](CCC(=O)N[C@@H](CCC(=O)NCCCC[C@H](NC(=O)[C@H](CCC(=O)O)NC(=O)[C@H](CCC(=O)O)NC(=O)[C@H](CC(C)C)NC(=O)[C@H](Cc1ccc(O)cc1)NC(=O)[C@H](CCCCN)NC(=O)[C@H](CO)NC(=O)[C@H](Cc1ccc(O)cc1)NC(=O)[C@H](CC(=O)O)NC(=O)[C@H](CO)NC(=O)[C@@H](NC(=O)[C@H](Cc1ccccc1)NC(=O)[C@@H](NC(=O)CNC(=O)[C@H](CCC(N)=O)NC(=O)C(C)(C)NC(=O)[C@@H](N)Cc1c[nH]cn1)[C@@H](C)O)[C@@H](C)O)C(=O)N[C@@H](CCCNC(=N)N)C(=O)N[C@@H](C)C(=O)N[C@@H](CCCNC(=N)N)C(=O)N[C@@H](CCC(=O)O)C(=O)N[C@@H](Cc1ccccc1)C(=O)N[C@H](C(=O)N[C@@H](C)C(=O)N[C@@H](Cc1c[nH]c2ccccc12)C(=O)N[C@@H](CC(C)C)C(=O)N[C@@H](CC(C)C)C(=O)N[C@@H](CCC(=O)O)C(=O)NCC(=O)NCC(=O)N1CCC[C@H]1C(=O)N[C@@H](CO)C(=O)N[C@@H](CO)C(=O)NCC(N)=O)C(C)C)C(=O)O)C(=O)O [Compound 9] (HELM PEPTIDE1{H.[Aib].Q.G.T.F.T.S.D.Y.S.K.Y.L.E.E.K.R.A.R.E.F.V.A.W.L.L.E.G.G.P.S.S.G.[am]}|PEPTIDE2{[CCCCCCCCCCCCCCCC(=O)[*:2]].[gGlu].[gGlu]}$PEPTIDE1,PEPTIDE2,17:R3-3:R2$$$V2.0)
[1]
  body weight change, Table 5: 19.9
[2]
  AUC of blood glucose, Table 6: 8.71 ± 2.10 mmol·h/L
  AUC reduction rate (%), Table 6: 56.2** %
physchem; [5]
  solubility: 1500 µg/mL (≈ 347 µM)
physchem; [6]
  solubility: 1070 µg/mL (≈ 247 µM)
physchem; pH 8, Solubility, pH 8.0, 10 mM phosphate buffer
  solubility: > 2000 µg/mL
physchem; pH 8, Solubility, pH 8.0, 20 mM phosphate buffer
  solubility: 1760 µg/mL (≈ 407 µM)
